From patent US11220504B2, “Pyrrolo[3,2-d] pyrimidine derivatives for the treatment of viral infections and other diseases” (JANSSEN SCIENCES IRELAND UNLIMITED COMPANY, priority 2012, dated 2022)

Assays:
human TLR8 = target: T1, human TLR8 (Homo sapiens, UniProt Q9NR97); experiment: TLR8 cellular reporter assay (HEK293, NFκB-luc); format: cell-based; conditions: HEK293 cells transfected with CMV-TLR8 and NFκB-luc, 6 hours incubation; lowest effective concentration
T1 construct: expressed in transfected cells; host or cells: HEK293 cells, transient transfection with TLR8 plasmid and NFκB-luc plasmid
T1 sequence (Q9NR97 27-1041): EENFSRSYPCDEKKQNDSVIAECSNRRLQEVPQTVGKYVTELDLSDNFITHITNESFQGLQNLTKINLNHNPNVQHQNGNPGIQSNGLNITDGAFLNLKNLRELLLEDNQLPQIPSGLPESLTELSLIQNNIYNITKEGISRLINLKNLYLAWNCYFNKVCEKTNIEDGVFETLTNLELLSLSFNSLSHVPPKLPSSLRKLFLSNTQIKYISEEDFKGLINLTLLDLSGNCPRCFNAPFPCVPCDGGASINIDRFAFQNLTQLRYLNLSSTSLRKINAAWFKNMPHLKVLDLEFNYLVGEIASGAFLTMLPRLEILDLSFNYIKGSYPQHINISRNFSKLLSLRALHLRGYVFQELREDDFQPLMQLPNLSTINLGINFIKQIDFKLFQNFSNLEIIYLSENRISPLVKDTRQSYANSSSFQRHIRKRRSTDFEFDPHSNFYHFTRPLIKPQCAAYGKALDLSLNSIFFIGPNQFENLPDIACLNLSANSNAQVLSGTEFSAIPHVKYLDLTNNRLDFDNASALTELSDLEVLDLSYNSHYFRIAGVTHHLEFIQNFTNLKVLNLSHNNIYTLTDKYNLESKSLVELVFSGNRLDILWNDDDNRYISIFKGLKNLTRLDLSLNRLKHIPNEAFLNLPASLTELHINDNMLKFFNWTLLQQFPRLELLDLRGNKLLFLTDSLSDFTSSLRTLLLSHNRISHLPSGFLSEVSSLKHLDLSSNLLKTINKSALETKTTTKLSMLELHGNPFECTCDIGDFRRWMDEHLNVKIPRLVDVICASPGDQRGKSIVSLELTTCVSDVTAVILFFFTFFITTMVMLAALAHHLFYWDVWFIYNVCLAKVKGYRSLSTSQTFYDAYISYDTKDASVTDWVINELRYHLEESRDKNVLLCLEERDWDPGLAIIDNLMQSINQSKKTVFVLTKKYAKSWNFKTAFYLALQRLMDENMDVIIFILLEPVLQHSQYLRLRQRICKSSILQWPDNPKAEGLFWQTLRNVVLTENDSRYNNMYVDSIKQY
How it was run: (§1)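 HEK293 cells transiently transfected with receptor expression vector plus NFκB-luciferase reporter, exposed to compound (added in 4% DMSO) for 6 hours at 37° C, 5% CO2. Luciferase activity measured by luminescence; dose-response curves from quadruplicate measurements.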

[1] = test system: interferon-stimulated responsive elements (ISRE); experiment: Activation of ISRE promoter elements by conditioned media from PBMC (HEK-ISREluc); format: cell-based, human; conditions: Homo sapiens; conditioned media from PBMC transferred to HEK-ISREluc cells, 24 hours; lowest effective concentration; read-out: PBMC LEC
How it was run: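 Human PBMCs (≥2 donors, RPMI + 10% human AB serum, 2×10^5 cells/well) incubated overnight with compound; supernatant transferred to HEK293 cells stably carrying pISRE-Luc for 24 h, then luciferase read. LEC = compound concentration on PBMCs giving luciferase signal at least two-fold above assay SD; recombinant IFN-α-2a standard.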

human TLR7 = target: T2, human TLR7 (Homo sapiens, UniProt Q9NYK1); experiment: TLR7 cellular reporter assay (HEK293, NFκB-luc); format: cell-based; conditions: HEK293 cells transfected with CMV-TLR7 and NFκB-luc, 6 hours incubation; lowest effective concentration
T2 construct: expressed in transfected cells; host or cells: HEK293 cells, transient transfection with CMV-TLR7 plasmid and NFκB-luc plasmid
T2 sequence (Q9NYK1 27-1049): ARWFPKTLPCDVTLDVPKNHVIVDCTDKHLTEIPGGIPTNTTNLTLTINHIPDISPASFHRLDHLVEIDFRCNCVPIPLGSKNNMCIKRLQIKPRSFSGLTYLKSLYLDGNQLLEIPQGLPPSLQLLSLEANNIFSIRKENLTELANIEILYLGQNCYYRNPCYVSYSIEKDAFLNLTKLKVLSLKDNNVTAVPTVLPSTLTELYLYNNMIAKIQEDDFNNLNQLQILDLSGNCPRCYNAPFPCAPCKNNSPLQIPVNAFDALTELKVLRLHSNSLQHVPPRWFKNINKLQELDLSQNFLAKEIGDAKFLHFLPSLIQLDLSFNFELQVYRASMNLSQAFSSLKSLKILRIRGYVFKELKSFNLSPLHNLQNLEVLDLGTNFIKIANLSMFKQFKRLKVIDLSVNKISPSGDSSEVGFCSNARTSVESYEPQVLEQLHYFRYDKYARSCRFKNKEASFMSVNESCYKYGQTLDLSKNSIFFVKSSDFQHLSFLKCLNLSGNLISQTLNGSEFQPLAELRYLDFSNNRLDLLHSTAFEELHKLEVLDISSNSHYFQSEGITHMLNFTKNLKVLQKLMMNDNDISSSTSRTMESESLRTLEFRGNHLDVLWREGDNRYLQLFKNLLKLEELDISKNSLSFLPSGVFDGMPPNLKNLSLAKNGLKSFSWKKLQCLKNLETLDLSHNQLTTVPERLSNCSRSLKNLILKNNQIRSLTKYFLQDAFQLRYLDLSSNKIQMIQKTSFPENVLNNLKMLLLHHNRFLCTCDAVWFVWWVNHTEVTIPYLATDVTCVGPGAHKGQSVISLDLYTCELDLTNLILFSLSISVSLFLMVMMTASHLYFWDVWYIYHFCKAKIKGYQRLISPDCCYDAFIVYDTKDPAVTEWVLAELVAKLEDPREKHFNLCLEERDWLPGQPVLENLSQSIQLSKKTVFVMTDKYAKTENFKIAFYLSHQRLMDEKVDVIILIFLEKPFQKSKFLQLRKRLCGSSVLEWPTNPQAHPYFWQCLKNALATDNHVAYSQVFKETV
How it was run: as §1

Compound | TLR8 LEC (human TLR8) [µM] | minimal effective concentration [1] [µM] | TLR7 LEC (human TLR7) [µM]
Cc1nc(CNc2nc(N)nc3ccn(Cc4ccccn4)c23)no1 [Compound 173] | >25 | 0.066 | 0.53
Cc1ccc(Cn2ccc3nc(N)nc(NCc4cc(C)on4)c32)nc1 [Compound 175] | >25 | 0.009 | 0.02
Cc1cc(CNc2nc(N)nc3ccn(Cc4cn(-c5ccccc5)nn4)c23)no1 [Compound 176] | >25 | 0.009 | 0.04
Cc1nc(CNc2nc(N)nc3ccn(Cc4ccccn4)c23)c(C)o1 [Compound 177] | >25 | 3.93 | 8.67
Cc1cc(CNc2nc(N)nc3ccn(Cc4cccc(F)n4)c23)no1 [Compound 178] | >25 | 0.014 | 0.15
COc1ncccc1Cn1ccc2nc(N)nc(NCc3cc(C)on3)c21 [Compound 179] | >25 | 0.003 | 0.02
COc1cc(OC)nc(Cn2ccc3nc(N)nc(NCc4cc(C)on4)c32)n1 [Compound 180] | >25 | 0.004 | 0.01
Cc1cc(CNc2nc(N)nc3ccn(Cc4cc(C)on4)c23)no1 [Compound 181] | 20.2 | 0.015 | 0.06
Cc1cc(CNc2nc(N)nc3ccn(Cc4cc5ccccc5cn4)c23)no1 [Compound 182] | >25 | 0.018 | 0.05
Cc1cc(CNc2nc(N)nc3ccn(Cc4ccc5cccnc5n4)c23)no1 [Compound 183] | >25 | 0.009 | 0.59
Cc1cc(CNc2nc(N)nc3ccn(Cc4ncccc4C)c23)no1 [Compound 185] | >25 | 0.018 | 0.07
Cc1cc(CNc2nc(N)nc3ccn(Cc4ncccn4)c23)no1 [Compound 186] | >25 | 0.035 | 0.14
Cc1cc(CNc2nc(N)nc3ccn(Cc4ccccn4)c23)nn1C [Compound 187] | >25 | 0.52 | 4.78
Cn1cnc(CNc2nc(N)nc3ccn(Cc4ccccn4)c23)c1 [Compound 188] | >25 | 0.047 | 7.62
Cc1cc(CNc2nc(N)nc3ccn(Cc4csc(C)n4)c23)no1 [Compound 192] | >25 | 0.03 | 0.07
Cn1cc(CNc2nc(N)nc3ccn(Cc4ccccn4)c23)nn1 [Compound 193] | >25 | 0.447 | 11.3
COc1cccnc1Cn1ccc2nc(N)nc(NCc3noc(C)n3)c21 [Compound 196] | 12.6 | 0.002 | 0.01
Cc1nc(Cn2ccc3nc(N)nc(NC(C)c4ccccn4)c32)cs1 (stereo not drawn) [Compound 197] | >25 | 0.04 | 0.39
CC(C)(O)CCNc1nc(N)nc2ccn(Cc3ccccn3)c12 [Compound 198] | >25 | 0.617 | 8.76
COCCn1ccc2nc(N)nc(NCc3cc(C(C)C)on3)c21 [Compound 199] | 23.5 | 0.032 | 0.60
COCCn1ccc2nc(N)nc(NCc3cc(C4CC4)on3)c21 [Compound 200] | 11.4 | 0.035 | 0.17
COCCn1ccc2nc(N)nc(NC(C)c3cccnc3)c21 (stereo not drawn) [Compound 201] | >25 | 0.978 | 7.30
COCCn1ccc2nc(N)nc(NCc3ccc(C)cn3)c21 [Compound 202] | >25 | 0.58 | 1.61
Cc1nc(CNc2nc(N)nc3ccn(Cc4ncccn4)c23)no1 [Compound 203] | >25 | 0.138 | 1.04
Cc1nc(CNc2nc(N)nc3ccn(Cc4cnccn4)c23)no1 [Compound 204] | >25 | 0.188 | 1.78
COc1ccccc1Cn1ccc2nc(N)nc(NCc3noc(C)n3)c21 [Compound 205] | 7.7 | 0.001 | <0.01
COC[C@H](C)Nc1nc(N)nc2ccn(Cc3csc(C)n3)c12 [Compound 206] | 15 | 0.129 | 0.74
COCc1nc(CNc2nc(N)nc3ccn(Cc4ccccn4)c23)no1 [Compound 208] | >25 | 0.402 | 5.14
